Entries after “also recorded” stand apart in the source; their conditions may differ.
Assays:
[1] = tested on: MT-SP1; experiment: In vitro cleavability of activatable antibodies by MT-SP1 (capillary electrophoresis); assay type: biochemical, human; settings: role: substrate; for Cleavability (%) MT-SP1 (1.5h) / Cleavability (%) MT-SP1 (4 h): 500 nM activatable antibody, 37° C, pH 7.4; for Cleavability (%) MT-SP1 (1.5h): 10 nM MT-SP1, 1.5 h; for Cleavability (%) MT-SP1 (4 h): 10 nM MT-SP1, 4 h; for extent of cleavage by MT-SP1 (matriptase) vs control CM 2001, in words: compared to control CM 2001
[2] = tested on: plasmin; experiment: In vitro cleavability of activatable antibodies by plasmin (capillary electrophoresis); assay type: biochemical, human; design: key to Cleavability (%) Plasmin (4 h): “—” indicates below limit of quantification; settings: role: substrate; for Cleavability (%) Plasmin (4 h): 500 nM activatable antibody, 10 nM plasmin, 37° C; for extent of cleavage by plasmin vs control CM 2001, in words: 4 h, compared to control CM 2001
[3] = tested on: TMPRSS11; experiment: In vitro cleavability of activatable antibodies by TMPRSS11 (capillary electrophoresis); assay type: biochemical, human; settings: role: substrate; for Cleavability (%) TMPRSS11 (4 h): 500 nM activatable antibody, 10 nM TMPRSS11D, 37° C, pH 7.4; for extent of cleavage by TMPRSS11 vs control CM 2001, in words: 4 h, compared to control CM 2001
[4] = tested on: MT-SP1; experiment: Cleavability kinetics (kcat/KM) of CMs in activatable antibodies with MT-SP1; assay type: biochemical, human; settings: role: substrate; compared to control CMs 2001 and 0001
[5] = In vivo stability of activatable antibodies in mice (cleaved activatable antibody in plasma); settings: 10 mg/kg intraperitoneal; for In Vivo % Activation (nu/nu, day 7): day 7, plasma; for in vivo stability vs control, in words: nu/nu mice, day 7, compared to control CM 2001
[6] = tested on: TNBC tumor; experiment: Quantitative zymography (QZ) assay, patient-derived tumor sample; design: species or system human (patient-derived); settings: 20 μg/mL, 37° C, 48 hours
Protocol: (§1) Protease activities in patient-derived tumor samples were evaluated using the quantitative zymography (QZ) assay. […] Tumor tissue samples from two head and neck cancer patients and one triple negative breast cancer (TNBC) patient were analyzed utilizing activatable antibodies of the present disclosure with the CM 6006 (SEQ ID NO: 7).
(§2) The protease activity in the tumor sections of 12 μm thickness was assessed. […] An equal volume of AF647-labeled c225 activatable antibodies prepared at 40 μg/mL in QZ buffer were then added directly onto the tissue containing the buffer to form a mixture and incubated at a final concentration of 20 μg/mL in a humidified chamber at 37° C. for 48 hours.
(§3) Following 48 hours of incubation, supernatants were collected from each incubated mixture and transferred into a well of a 96-well PCR plate for assay by capillary electrophoresis. Each supernatant sample was mixed with Pico Sample Buffer (Perkin Elmer) containing 2-beta-mercaptoethanol at four parts sample and one part of Pico Sample Buffer and then heated at 95° C. for 10 minutes. The composition of each supernatant sample was then assessed using the LabChip GXII Touch (Perkin Elmer) with the HT Pico Protein Express 100 protocol (Perkin Elmer). Protein Express Assay LabChips (Perkin Elmer #760499) were set up using the protocol of the Protein Pico Assay Reagent Kit (Perkin Elmer #760498).

[7] = tested on: head and neck tumor A; experiment: as above; design: species or system human (patient-derived); settings: 20 μg/mL, 37° C, 48 hours
Protocol: as §1, §2, §3

[8] = tested on: head and neck tumor B; experiment: as above; design: species or system human (patient-derived); settings: 20 μg/mL, 37° C, 48 hours
Protocol: as §1, §2, §3

[9] = tested on: H292 (human lung cancer cell line) xenograft tumors; experiment: In vivo efficacy in mouse H292 xenograft model; design: species or system human tumor cells in female nu/nu mice; settings: 9 mg/kg intraperitoneal on day 1; nu/nu mice
Protocol: The study provided herein evaluates the in vivo efficacy of activatable antibodies of the present disclosure with CM 6006 (SEQ ID NO: 7) using a mouse H292 (human lung cancer cell line) xenograft model.
(§4) In this study, H292 (human lung cancer-derived cell line) subcutaneous xenograft tumors in female nu/nu mice of 6-8 weeks of age were grown to an average volume of 117-215 mm^3. […] The mice were then randomized into groups of 8 mice each and each group was dosed intraperitoneally on day 1 with 9 mg/kg of the indicated test article.

[10] = tested on: H292 (human lung cancer cell line) xenograft tumors; experiment: Intra-tumoral activation assay in H292 xenograft tumors; assay type: in vivo, human tumor cells in female nu/nu mice; settings: tumors collected 7 days after dosing, 9 mg/kg intraperitoneal
Protocol: as §4
Tumors were collected from the mice 7 days after dosing. The tumor tissue was lysed with immunoprecipitation buffer (Pierce) containing HALT protease inhibitor cocktail (Thermo Fisher) and EDTA and lysed using the Barocycler (Pressure Bioscience).

[11] = tested on: human bone marrow aspirates; experiment: In situ stability in human bone marrow aspirates; settings: 20 μg/mL, 37° C, 21 or 24 hours, N=2 donors, normalized to CM 2001
Protocol: The study provided herein evaluates the in situ stability of activatable antibodies of the present disclosure with the CM 6006 (SEQ ID NO: 7) by human bone marrow aspirates. Fresh human bone marrow aspirates from healthy donors were purchased from Stemcell Technology Inc. (Catalog No. 70502) and AllCells Inc. and were processed to lyse red blood cells and washed 5 times with buffer or serum-free media. […] An equal volume of AF647-labeled c225 activatable antibodies prepared at 40 μg/mL in serum-free RPMI media were then added to form a mixture and incubated at a final concentration of 20 μg/mL at 37° C. for 21 or 24 hours. Cells were pelleted through centrifugation for 5 min at 300×g. Supernatants were collected from each incubated mixture and transferred into a well of a 96-well PCR plate for assay by capillary electrophoresis. Each supernatant sample was mixed with Pico Sample Buffer (Perkin Elmer) containing 2-beta-mercaptoethanol at four parts sample and one part of Pico Sample Buffer and then heated at 95° C. for 10 minutes. Substrate cleavage was measured by capillary electrophoresis using a LabChip® GXII Touch™ system (Perkin Elmer) with the HT Pico Protein Express 100 protocol (Perkin Elmer). Protein Express Assay LabChips (Perkin Elmer #760499) were set up using the protocol of the Protein Pico Assay Reagent Kit (Perkin Elmer #760498).

Substance | Cleavability (%) MT-SP1 (1.5h) [1] [%] | Cleavability (%) MT-SP1 (4 h) [1] [%] | extent of cleavage by MT-SP1 (matriptase) vs control CM 2001, in words [1] | Cleavability (%) Plasmin (4 h) ([2]; pH 7.4) [%] | extent of cleavage by plasmin vs control CM 2001, in words [2] | Cleavability (%) TMPRSS11 (4 h) [3] [%] | extent of cleavage by TMPRSS11 vs control CM 2001, in words [3] | cleavability from kcat/KM results vs control CMs, in words [4] | In Vivo % Activation (nu/nu, day 7) [5] [%] | in vivo stability vs control, in words [5] | light chain (LC) activation, in words [6] | light chain (LC) activation, in words [7] | light chain (LC) activation, in words [8] | Cleavability (%) Plasmin (4 h) ([2]; below limit of quantification) | cleavability percentage for MT-SP1 ([1]; 1.5 h, lower bound stated in text) | in vivo efficacy (tumor volume), in words [9] | intra-tumoral activation, in words [10] | resistance to cleavage in situ in bone marrow, in words [11]
HQSRS [compound 6001] | 56.9 | 100.0 | substantially cleaved by MT-SP1; also recorded: to a greater extent than the control CM 2001 | 11.1 | to a greater extent than the control CM 2001 | 100.0 | to a greater extent than the control CM 2001 | higher cleavability by at least MT-SP1 than control CMs 2001 (SEQ ID NO: 78) and 0001 (SEQ ID NO: 77) | 24.2 | higher in vivo stability than the activatable antibody with the control CM 2001 |  |  |  |  |  |  |  | 
APRSALAHGLF [compound 5007, reference compound] |  |  |  |  |  |  |  |  |  |  | Comparable levels of LC activation | Comparable levels of LC activation | Comparable levels of LC activation |  |  |  |  | 
ISSGLLSGRSDNH [compound 2001, reference compound] | 10.9 | 19.4 |  |  |  | 9.8 |  |  | 32.1 |  |  |  |  | — |  |  |  | 
LSGRSDNH [compound 0001, reference compound] |  |  |  |  |  |  |  |  | 20 |  |  |  |  |  |  |  |  | 
SDHQSRS [compound 6006] | 33.1 | 74.1 | substantially cleaved by MT-SP1; also recorded: to a greater extent than the control CM 2001 | 15.1 | to a greater extent than the control CM 2001 | 100.0 | to a greater extent than the control CM 2001 |  | 18.4 | higher in vivo stability than the activatable antibody with the control CM 2001 | Increased LC activation is observed in the activatable antibody with CM 6006 (SEQ ID NO: 7) compared to the activatable antibody with the control CM 3001; also recorded: Comparable levels of LC activation | Increased LC activation is observed in the activatable antibody with CM 6006 (SEQ ID NO: 7) compared to the activatable antibody with the control CM 3001; also recorded: Comparable levels of LC activation | Comparable levels of LC activation |  | greater than 30% | in vivo efficacy that is comparable with the activatable antibody with the control CM 2001 (SEQ ID NO: 78) and similar to cetuximab | cleaved by proteases present in the tumor resulting in activation of the antibody | resistance to cleavage in situ in the bone marrow as compared to activatable antibodies with control CMs 2001 (SEQ ID NO: 78), 5007 (APRSALAHGLE; SEQ ID NO: 80) (WO2020118109) and 3001
